Test results from ChEMBL document CHEMBL5154765, “Design, synthesis, and biological evaluation of novel spiro[pyrrolidine-2,3'-quinolin]-2'-one derivatives as potential chitin synthase inhibitors and antifungal agents” (Eur J Med Chem, 2022).
In brackets after ≈: the same amount, converted by molar mass. Activity calls are given as the source filed them. No cut-off for these calls is given here.

Legend:
Candida albicans [1] = assay: Antifungal activity against micafungin resistant Candida albicans ATCC 76615 assessed as reduction in fungal growth incubated for 24 hrs by two fold broth dilution method; format: functional
Cryptococcus neoformans [2] = assay: Antifungal activity against Cryptococcus neoformans ATCC 32719 assessed as polyoxin B MIC incubated for 72 hrs by checker board assay; format: functional
[3] = Inhibition of Candida tropicalis ATCC750 chitin synthase using UDP-GlcNAc as substrate incubated for 1 hr by microplate reader analysis
Cryptococcus neoformans [4] = assay: Antifungal activity against Cryptococcus neoformans ATCC 32719 assessed as reduction in fungal growth incubated for 24 hrs by two fold broth dilution method; format: functional
Cryptococcus neoformans [5] = assay: Antifungal activity against Cryptococcus neoformans ATCC 32719 incubated for 72 hrs in presence of polyoxin B by checker board assay; format: functional
Aspergillus fumigatus [6] = assay: Synergistic antifungal activity against Aspergillus fumigatus GIMCC 3.19 assessed as fractional inhibitory concentration index incubated for 72 hrs in presence of fluconazole by checker board assay; format: functional
Candida albicans [7] = assay: Antifungal activity against Candida albicans ATCC 76615 incubated for 72 hrs in presence of polyoxin B by checker board assay; format: functional
Aspergillus fumigatus [8] = assay: Antifungal activity against Aspergillus fumigatus GIMCC 3.19 assessed as reduction in fungal growth incubated for 24 hrs by two fold broth dilution method; format: functional
Candida albicans [9] = assay: Antifungal activity against Candida albicans ATCC 76615 assessed as fluconazole MIC incubated for 72 hrs by checker board assay; format: functional
Cryptococcus neoformans [10] = assay: Antifungal activity against Cryptococcus neoformans ATCC 32719 assessed as reduction in fungal growth in presence of sorbitol incubated for 24 hrs by two fold broth dilution method; format: functional
Candida albicans [11] = assay: Antifungal activity against Candida albicans ATCC 76615 incubated for 72 hrs in presence of fluconazole by checker board assay; format: functional
Candida albicans [12] = assay: Antifungal activity against Candida albicans ATCC 76615 assessed as reduction in fungal growth in presence of sorbitol incubated for 24 hrs by two fold broth dilution method; format: functional
Aspergillus fumigatus [13] = assay: Antifungal activity against Aspergillus fumigatus GIMCC 3.19 assessed as polyoxin B MIC incubated for 72 hrs by checker board assay; format: functional
Cryptococcus neoformans [14] = assay: Synergistic antifungal activity against Cryptococcus neoformans ATCC 32719 assessed as fractional inhibitory concentration index incubated for 72 hrs in presence of polyoxin B by checker board assay; format: functional
[15] = Binding affinity to Candida tropicalis ATCC750 chitin synthase assessed as inhibition constant using UDP-GlcNAc as substrate incubated for 10 hrs by Lineweaver-burk plot analysis
Aspergillus flavus [16] = assay: Antifungal activity against Aspergillus flavus ATCC 16870 assessed as reduction in fungal growth in presence of sorbitol incubated for 24 hrs by two fold broth dilution method; format: functional
Candida albicans [17] = assay: Synergistic antifungal activity against Candida albicans ATCC 76615 assessed as fractional inhibitory concentration index incubated for 72 hrs in presence of polyoxin B by checker board assay; format: functional
Aspergillus flavus [18] = assay: Antifungal activity against Aspergillus flavus ATCC 16870 incubated for 72 hrs in presence of fluconazole by checker board assay; format: functional
Aspergillus flavus [19] = assay: Antifungal activity against Aspergillus flavus ATCC 16870 assessed as reduction in fungal growth incubated for 24 hrs by two fold broth dilution method; format: functional
Candida albicans [20] = assay: Antifungal activity against fluconazole resistant Candida albicans ATCC 76615 assessed as reduction in fungal growth incubated for 24 hrs by two fold broth dilution method; format: functional
Aspergillus flavus [21] = assay: Antifungal activity against Aspergillus flavus ATCC 16870 assessed as fluconazole MIC incubated for 72 hrs by checker board assay; format: functional
Candida albicans [22] = assay: Synergistic antifungal activity against Candida albicans ATCC 76615 assessed as fractional inhibitory concentration index incubated for 72 hrs in presence of fluconazole by checker board assay; format: functional
Aspergillus flavus [23] = assay: Synergistic antifungal activity against Aspergillus flavus ATCC 16870 assessed as fractional inhibitory concentration index incubated for 72 hrs in presence of fluconazole by checker board assay; format: functional
Candida albicans [24] = assay: Antifungal activity against Candida albicans ATCC 76615 assessed as polyoxin B MIC incubated for 72 hrs by checker board assay; format: functional
Aspergillus fumigatus [25] = assay: Antifungal activity against Aspergillus fumigatus GIMCC 3.19 assessed as fluconazole MIC incubated for 72 hrs by checker board assay; format: functional
Cryptococcus neoformans [26] = assay: Antifungal activity against fluconazole resistant Cryptococcus neoformans ATCC 32719 assessed as reduction in fungal growth incubated for 24 hrs by two fold broth dilution method; format: functional
Aspergillus fumigatus [27] = assay: Antifungal activity against Aspergillus fumigatus GIMCC 3.19 incubated for 72 hrs in presence of polyoxin B by checker board assay; format: functional
Cryptococcus neoformans [28] = assay: Antifungal activity against Cryptococcus neoformans ATCC 32719 assessed as fluconazole MIC incubated for 72 hrs by checker board assay; format: functional
Aspergillus fumigatus [29] = assay: Antifungal activity against fluconazole resistant Aspergillus fumigatus GIMCC 3.19 assessed as reduction in fungal growth incubated for 24 hrs by two fold broth dilution method; format: functional
Aspergillus fumigatus [30] = assay: Antifungal activity against Aspergillus fumigatus GIMCC 3.19 incubated for 72 hrs in presence of fluconazole by checker board assay; format: functional
Cryptococcus neoformans [31] = assay: Synergistic antifungal activity against Cryptococcus neoformans ATCC 32719 assessed as fractional inhibitory concentration index incubated for 72 hrs in presence of fluconazole by checker board assay; format: functional
Aspergillus fumigatus [32] = assay: Synergistic antifungal activity against Aspergillus fumigatus GIMCC 3.19 assessed as fractional inhibitory concentration index incubated for 72 hrs in presence of polyoxin B by checker board assay; format: functional
Aspergillus flavus [33] = assay: Synergistic antifungal activity against Aspergillus flavus ATCC 16870 assessed as fractional inhibitory concentration index incubated for 72 hrs in presence of polyoxin B by checker board assay; format: functional
Aspergillus flavus [34] = assay: Antifungal activity against fluconazole resistant Aspergillus flavus ATCC 16870 assessed as reduction in fungal growth incubated for 24 hrs by two fold broth dilution method; format: functional
Aspergillus flavus [35] = assay: Antifungal activity against Aspergillus flavus ATCC 16870 assessed as polyoxin B MIC incubated for 72 hrs by checker board assay; format: functional
Aspergillus flavus [36] = assay: Antifungal activity against Aspergillus flavus ATCC 16870 incubated for 72 hrs in presence of polyoxin B by checker board assay; format: functional
Candida albicans [37] = assay: Antifungal activity against Candida albicans ATCC 76615 assessed as reduction in fungal growth incubated for 24 hrs by two fold broth dilution method; format: functional
Cryptococcus neoformans [38] = assay: Antifungal activity against Cryptococcus neoformans ATCC 32719 incubated for 72 hrs in presence of fluconazole by checker board assay; format: functional
Aspergillus fumigatus [39] = assay: Antifungal activity against Aspergillus fumigatus GIMCC 3.19 assessed as reduction in fungal growth in presence of sorbitol incubated for 24 hrs by two fold broth dilution method; format: functional
Candida tropicalis [40] = assay: Noncompetitive inhibition of Candida tropicalis ATCC750 assessed as decrease in Vmax with constant Km at 0.05 to 0.15 mM using UDP-GlcNAc as substrate incubated for 10 hrs by Lineweaver-burk plot analysis; details: dose 0.05-0.15 mM
Candida tropicalis [41] = assay: Inhibition of Candida tropicalis ATCC750 chitin synthase at 300 ug/ml using UDP-GlcNAc as substrate incubated for 1 hr by microplate reader analysis relative to control; details: dose 300.0 µg/ml

`O=C(/C=C/C(=O)N1CCCC12Cc1ccccc1NC2=O)Nc1cccc([N+](=O)[O-])c1` (stereo unspecified) gave an MIC (Candida albicans [1]) of 32 µg/mL (≈ 76.1 µM), an MIC (Cryptococcus neoformans [2]) of 4 µg/mL and an IC50 [3] of 100 µM. For the same compound, the MIC (Cryptococcus neoformans [4]) was 8 µg/mL (≈ 19 µM), the MIC (Cryptococcus neoformans [5]) was 4 µg/mL and the “fractional inhibitory concentration index (FICI)” value (Aspergillus fumigatus [6]) was 1.13. For the same compound, the MIC (Candida albicans [7]) was 2 µg/mL, the MIC (Aspergillus fumigatus [8]) was 4 µg/mL (≈ 9.51 µM) and the MIC (Candida albicans [9]) was 1 µg/mL. The MIC (Cryptococcus neoformans [10]) was 64 µg/mL, the MIC (Candida albicans [11]) was 1 µg/mL and the MIC (Candida albicans [12]) was 16 µg/mL. For the same compound, the MIC (Aspergillus fumigatus [13]) was 4 µg/mL, the “fractional inhibitory concentration index (FICI)” value (Cryptococcus neoformans [14]) was 0.75 and the Ki [15] was 110 µM. The MIC (Aspergillus flavus [16]) was 64 µg/mL, the “fractional inhibitory concentration index (FICI)” value (Candida albicans [17]) was 1.5 and the MIC (Aspergillus flavus [18]) was 2 µg/mL. For the same compound, the MIC (Aspergillus flavus [19]) was 4 µg/mL (≈ 9.51 µM), the MIC (Candida albicans [20]) was 32 µg/mL (≈ 76.1 µM) and the MIC (Aspergillus flavus [21]) was 1 µg/mL. For the same compound, the “fractional inhibitory concentration index (FICI)” value (Candida albicans [22]) was 0.75, the “fractional inhibitory concentration index (FICI)” value (Aspergillus flavus [23]) was 0.63 and the MIC (Candida albicans [24]) was 4 µg/mL. For the same compound, the MIC (Aspergillus fumigatus [25]) was 4 µg/mL, the MIC (Cryptococcus neoformans [26]) was 64 µg/mL (≈ 152 µM) and the MIC (Aspergillus fumigatus [27]) was 4 µg/mL. The MIC (Cryptococcus neoformans [28]) was 1 µg/mL, the MIC (Aspergillus fumigatus [29]) was 32 µg/mL (≈ 76.1 µM) and the MIC (Aspergillus fumigatus [30]) was 0.5 µg/mL. For the same compound, the “fractional inhibitory concentration index (FICI)” value (Cryptococcus neoformans [31]) was 0.63, the “fractional inhibitory concentration index (FICI)” value (Aspergillus fumigatus [32]) was 1.5 and the “fractional inhibitory concentration index (FICI)” value (Aspergillus flavus [33]) was 1.5. For the same compound, the MIC (Aspergillus flavus [34]) was 32 µg/mL (≈ 76.1 µM), the MIC (Aspergillus flavus [35]) was 4 µg/mL and the MIC (Aspergillus flavus [36]) was 4 µg/mL. It also gave an MIC (Candida albicans [37]) of 2 µg/mL (≈ 4.76 µM), an MIC (Cryptococcus neoformans [38]) of 4 µg/mL and an MIC (Aspergillus fumigatus [39]) of 128 µg/mL. For the same compound, the inhibition (Candida tropicalis [40]) was “Active” and the inhibition (Candida tropicalis [41]) was 83.4%.
